The values below come from patent US5270332A, “Cholesteral lowering agents” (Merck & Co., Inc., priority 1992, dated 1993).

The IC50 is the concentration that gives 50% inhibition. Lower therefore signals greater potency in that assay.

The structures appear in SMILES notation.

The target in experiment [1] is T1, squalene synthase (human HepG2 enzyme) (Homo sapiens, UniProt P37268).
T1 construct: The resulting pellet from the 100,000×g centrifugation, containing the squalene synthase, was resuspended in 5 ml of enzyme suspension buffer; endogenous in cells; host or cells: HepG2 cells (ATCC HB 8065), 100,000×g microsomal pellet
T1 sequence (P37268 1-417): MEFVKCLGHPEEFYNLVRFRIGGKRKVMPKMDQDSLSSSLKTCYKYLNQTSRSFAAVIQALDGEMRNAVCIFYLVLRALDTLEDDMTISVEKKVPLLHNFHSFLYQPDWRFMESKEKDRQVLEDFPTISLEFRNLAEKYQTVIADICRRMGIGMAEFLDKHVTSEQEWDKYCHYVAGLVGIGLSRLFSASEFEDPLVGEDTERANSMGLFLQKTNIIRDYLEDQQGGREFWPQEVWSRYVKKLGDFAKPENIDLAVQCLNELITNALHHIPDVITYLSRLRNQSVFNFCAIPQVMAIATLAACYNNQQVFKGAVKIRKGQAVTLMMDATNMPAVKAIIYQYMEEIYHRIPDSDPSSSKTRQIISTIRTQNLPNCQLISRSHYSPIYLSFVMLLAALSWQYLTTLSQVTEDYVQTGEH
The experiment can be described thus: Squalene synthase assay, human HepG2 cell enzyme. Type of experiment: biochemical. The following applies: 3 μM 3H-farnesyl pyrophosphate, 30°, 20 minutes. On the procedure:
The intrinsic squalene synthase inhibitory activity of representative compounds of this invention was also measured by the standard in vitro protocol described below:
PREPARATION OF HUMAN HepG2 cell ENZYME
1. SOURCE: HEPG2 CELL LINE (Liver, hepatoblastoma, Human) ATCC No. HB 8065
2. CELL GROWTH AND MAINTENANCE
Culture Medium: Minimum essential medium (MEM) with non essential amino acids, sodium pyruvate, and 10% fetal bovine serum. The medium was changed twice weekly. […] The growth medium was prepared as listed below:
SUBCULTURE PROCEDURE: The medium was removed and washed with PBS (Phosphate-Buffered Saline 15.6 mM. pH 7.0). Fresh trypsin (0.25%)-EDTA (0.02%) with Hank's Balanced Salt solution was added and the flask was allowed to stand for a minute before the trypsin was removed. The flask was incubated at 37° C. until cells detached. Fresh medium was added and the cells were dispersed and dispensed into new flasks. Subcultivation ration: 1:6. […]
HARVEST: The medium was removed and the cells were washed with PBS. […] Cells 1 were counted (2.5×10^9 yield from 18 flasks (75cm^2)), and resuspended in 10 ml of 50 mM HEPES (N-[2-Hydroxyethyl]piperazine-N'-[2-ethane sulfonic acid]) containing 5 mM MgCl2, 2 mM MnCl2, 10 mM DTT, pH 7.5 (enzyme suspension buffer). […]

Experiment [2] concerns the target T2, squalene synthase (rat liver enzyme) (Rattus norvegicus, UniProt Q02769).
T2 construct: from tissue; host or cells: liver microsomes of male Charles River CD rats fed 0.1% lovastatin for 4 days
T2 sequence (Q02769 1-416): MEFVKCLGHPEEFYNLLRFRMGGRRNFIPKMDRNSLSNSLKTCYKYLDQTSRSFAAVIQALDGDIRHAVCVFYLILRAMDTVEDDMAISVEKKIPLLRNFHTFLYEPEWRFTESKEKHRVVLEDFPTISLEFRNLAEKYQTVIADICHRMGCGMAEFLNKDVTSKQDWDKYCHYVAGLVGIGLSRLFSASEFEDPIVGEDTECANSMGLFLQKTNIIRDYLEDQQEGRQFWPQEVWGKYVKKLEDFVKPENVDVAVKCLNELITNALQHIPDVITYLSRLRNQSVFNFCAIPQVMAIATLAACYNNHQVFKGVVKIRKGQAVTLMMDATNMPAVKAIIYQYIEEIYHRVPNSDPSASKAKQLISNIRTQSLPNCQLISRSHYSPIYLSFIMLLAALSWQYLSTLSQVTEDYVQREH
The experiment in a line: Squalene synthase assay using rat liver microsomes. Type of experiment: biochemical. The following applies: [3H]farnesyl-pyrophosphate, 30° C., 20 minutes. On the procedure:
The squalene synthase assay using rat liver microsomes is described below:
Preparation of Rat Liver Microsomes
Male, Charles River CD rats (120 to 150 g) were fed a diet containing 0.1% lovastatin for 4 days. The livers from these rats were homogenized in 5 volumes (ml/g) of ice cold 50 mM HEPES (4-(2-hydroxyethyl)-1-piperazine ethanesulfonic acid), 5 mM EDTA (ethylenediaminetetraacetic acid) pH 7.5 with a Potter-Elvehjem type tissue grinder. The homogenate was centrifuged twice at 20,000×g for 15 minutes at 4° C., discarding the pellet each time. The supernatant was then centrifuged at 100,000×g for 1 hour at 4° C. The resulting microsomal pellet was resuspended in a volume of the above homogenizing buffer equal to one fifth the volume of the original homogenate. This microsomal preparation has a protein concentration of about 7 mg/ml. The microsomal suspensions were stored in aliquots at -70° C. […]
If a squalene epoxidase inhibitor (ingredient 7, above) is not used, the assay mix is degassed under a vacuum and flushed with N2. […] Five ml of scintillation fluid was added to the heptane solution and radioactivity was determined by liquid scintillation counting.
Percent inhibition is calculated by the formula: [formula]
IC50 values were determined by plotting the log of the concentration of the test compound versus the percentage inhibition. […]

Experiment [3] concerns Ras farnesylation. The following applies: literature (Hancock et al.; Casey et al.; Schafer et al.); cited from earlier work.

Take `CC(O)C(O)CCCCC=CCCCCC(=O)OC1C(O)C2(CCC(C)C(O)C(C)CC=Cc3ccccc3)OC(C(=O)O)C(O)(C(=O)O)C1(C(=O)O)O2` (stereo not shown) [Compound A]: the values for the IC50 in experiment [1] and in experiment [2] were 31 nM and 5.6 nM, respectively. With `CC[C@H](C)C(=O)O[C@H]1CCC=C2C=C[C@H](C)[C@H](CC[C@@H]3C[C@@H](O)CC(=O)O3)[C@H]21` [compactin], the “Inhibition of Ras farnesylation in vivo” value in experiment [3] is listed as “Inhibition of Ras farnesylation in vivo has been demonstrated”. Regarding `CC[C@H](C)C(=O)O[C@H]1C[C@@H](C)C=C2C=C[C@H](C)[C@H](CC[C@@H]3C[C@@H](O)CC(=O)O3)[C@H]21` [lovastatin], the “Inhibition of Ras farnesylation in vivo” value in experiment [3] is given as “Inhibition of Ras farnesylation in vivo has been demonstrated”.
